Data set [1] can be described thus: Galvanostatic bulk electrolysis (BE) cycling in H-cell. The format is physicochemical. Particulars: for Cyclic voltammograms before and after BE (decomposition check): 0.1M TBAPF6/CH3CN, scan rate 0.2 V·s^−1. Here is the method:
BE experiments were performed in custom-made H-cells. The H-cell has two electrolyte chambers separated by an ultra-fine porous glass frit (P5, Adams and Chittenden) which prevents the mixing of the electrolytes. Two homemade reticulated vitreous carbon (45 PPI, Duocel®) electrodes, placed in both chambers separately served as the working and counter electrodes. A non-aqueous Ag/Ag^+ (silver wire immersed in CH3CN containing 0.1 M TBABF4 and 0.01 M AgBF4) electrodes was used as a reference electrode and was placed next to the working electrode in the same chamber. In addition, a 3 mm-glassy carbon electrode (CH Instruments, Inc.) was attached to the working electrode chamber to record CVs before and after bulk electrolysis experiments. In each of the working and the counter electrode chambers, 3.5 mL of electrolyte containing a given concentration of the neutral active species and 0.1 M TBAPF6/CH3CN were added to both the working and the counter electrode chambers for charge-discharge cycling. The voltage cut-offs were determined by recording a CV in the working electrode side prior to the start of the bulk electrolysis experiment. The values of the cut-off voltage were set by adding 0.3 V to the calculated half-way oxidation potential determined by CV. Both the working and the counter electrode chambers were stirred throughout the bulk electrolysis experiments at a stirring speed of 900 rpm to maintain mass transfer during charging and discharging. The experiment was conducted at variable C-rates, starting with 3 C then 2 C and finally 1 C with 8 cycles run at each C-rate. The galvanostatic control and data acquisition were achieved by incorporating a BioLogic VSP potentiostat.
Galvanostatic bulk electrolysis (BE) cycling was performed to monitor the charged species self-discharge by following the coulombic efficiency (CE). BE is particularly interesting because it provides deeper insights on the electrochemical stability of the electroactive compounds upon continuous galvanostatic cycling. More information about this technique is provided in the supplementary information. Essentially, if trace impurities existing in the electrolyte trigger self-discharge of the charged species, a relatively large portion of oxidized species will switch to its uncharged form if the concentration of active species is low. However, at elevated concentrations, the relative concentration of impurities with respect to active species will be considerably lower and their effect will be minimized. In other words, higher CEs are expected when the active species concentration is larger.
CE is calculated by dividing the amount of charge passed during discharging (Qdischarge) by the amount of charge passed during charging (Qcharge). A considerably lower than 99% CE indicates instability and decomposition of active material via parasitic processes. It is known that CE is affected by the C-rate at which the battery is charged/discharged. Higher C-rates usually yield higher CEs due to the fact that less time is given for unwanted parasitic processes to consume the charged species, unlike in slow C-rates where such processes are allowed to consume charge leading to lower CEs.
BE cycling was performed at three different C-rates 3 C, 2 C, and 1 C with eight charge/discharge cycles at each C-rate. At slower charge-discharge rates, the accessed capacities were higher. This is expected due to the increase in the cell polarization at faster cycling rates.

Data set [2] can be described thus: Stability via UV-vis spectroscopy over 24 h. The data set is classed as physicochemical. The note with it: 0.5 mM in 0.1 M TBAPF6/CH3CN. Here is the method:
In an argon-filled glove box, 0.5 mM solutions of neutral and radical cation were prepared in acetonitrile and pipetted into 1 mm path length optical glass cuvettes. The choice of this path length of cuvette is dictated by the aim to prevent the UV-vis detector saturation of the intensely colored cationic species. All samples destined to UV-vis stability monitoring contained 0.1 M TBAPF6 whereas UV-NIR samples were in pure CH3CN. Solutions were added to the cuvettes inside an argon filled glovebox, sealed with a Teflon screw cap and removed from the glovebox for spectral analysis. UV-vis spectra were collected in an Agilent 8453 diode-array spectrometer. Spectra were collected at 0, 1, 3, 4, 5, 6 and 24 h after dissolution.
UV-vis spectroscopy provides a means to monitor the stabilities of the radical cations over prolonged time scales that extend beyond that offered by CV. This is possible since all the charged forms show absorption features in the UV and visible regions, which enables monitoring of the change of concentrations over the course of time, based on changes in peak intensities.
The radical cation samples were prepared in 0.1 M TBAPF6/CH3CN inside an argon-filled glovebox and transferred into sealed cuvettes to prevent contact with atmospheric moisture/air when taken outside the glovebox. […]
The neutral samples of each molecule were also monitored for the sake of comparison. […]

Turning to `COc1ccc(N(c2ccc(OC)cc2)c2ccc(N(c3ccc(OC)cc3)c3ccc(OC)cc3)cc2)cc1` [1^+⋅], the “Cyclic voltammograms before and after BE (decomposition check)” value (from here on “Cyclic voltammograms before and after BE”) in data set [1] was “nearly identical”. Also, in data set [1] (all C-rates (3 C, 2 C, 1 C)), the “Capacity retention during BE” value was ~99%.

For `COc1ccc(N(c2ccc(OC)cc2)c2ccc(-c3ccc(N(c4ccc(OC)cc4)c4ccc(OC)cc4)cc3)cc2)cc1` [2^+⋅], in data set [1], the “Cyclic voltammograms before and after BE” value was “identical CVs”. The “Capacity retention during BE” value in data set [1] (all C-rates (3 C, 2 C, 1 C)) is on record as “good capacity retention”.

`Cc1ccc(C(F)(F)F)cc1N(c1ccc(N(c2cc(C(F)(F)F)ccc2C)c2cc(C(F)(F)F)ccc2C)cc1)c1cc(C(F)(F)F)ccc1C` [3^+⋅]: the “Stability of radical cation UV-vis absorption spectrum” value in data set [2] is “very subtle changes”. Also, the “Cyclic voltammograms before and after BE” value in data set [1] is “nearly identical features”. Further, the “Capacity retention during BE” value came to 94% in data set [1] (after 8 cycles at 1 C), 97% in data set [1] (after 8 cycles at 2 C) and 99% in data set [1] (after 8 cycles at 3 C).

For `Cc1ccc(C(F)(F)F)cc1N(c1ccc(-c2ccc(N(c3cc(C(F)(F)F)ccc3C)c3cc(C(F)(F)F)ccc3C)cc2)cc1)c1cc(C(F)(F)F)ccc1C` [4^+⋅], in data set [2], the “Stability of radical cation UV-vis absorption spectrum” value is reported as “rapid decay”. The “Cyclic voltammograms before and after BE” value in data set [1] is on record as “substantial decrease in the peak heights”. Besides, the “Capacity retention during BE” value in data set [1] (all C-rates (3 C, 2 C, 1 C)) is listed as “remarkable capacity decay”.
